Measured values: patent EP1709956A1, “Hair treatment composition comprising betains” (Henkel Kommanditgesellschaft auf Aktien, priority 2001, dated 2002)

Test system: humane Haarfollikel
Experiment: in vitro model of isolated human scalp hair follicles (Philpott): hair shaft elongation in organ culture
Assay type: cell-based
Details: 9 days in culture
From the text: Auf diese Publikation wird ausdrücklich Bezug genommen. Gemäß dieser Veröffentlichung wurde wie folgt verfahren: a. Isolation humaner Kopfhauthaarfollikel Es wird okzipitale, humane Vollhaut isoliert. b. Aufreinigung der isolierten humanen Kopfhautfollikel Die herausgezupften Haarfollikel werden in ein frisches Isolationsmedium überführt, darin gesammelt und anschließend mehrfach unter sterilen Bedingungen mit frischem Medium gewaschen. Je drei Haarfollikel werden randomisiert in ein Well einer 24-Well Platte mit 500µl kompletten Mediums (verwendet wird Williams E Medium, supplementiert mit 2 mM L-Glutamin, 10 µg/ml Hydrokortison, 10 µg/ml Insulin, 10 µg/ml Penizillin und 10 µg/ml Streptomycin). Vor der Zugabe der zu testenden Substanzen wurden die Haarfollikel für 30 Minuten im Inkubator präinkubiert. c. Testung der Substanzen Es werden Carnitin, Carnitintartrat sowie Minoxidil als Vergleichssubstanz mit bekannter Wirkung geprüft. Die Prüfkonzentration für Carnitin und Carnitiontartrat beträgt jeweils 50 µmol/1. Die Haarfollikel werden für 9 Tage in Kultur gehalten. Das Medium inklusive der Testsubstanzen wird täglich gewechselt. Die Länge der jeweiligen Haarschäfte wird am 9. Tag mit Hilfe eines Meßokulares am Dissektionsmikroskop gemessen und dokumentiert. Die Prüfung von Minoxidil ist eine Positivkontrolle, weil Minoxidil in der Literatur bereits als wachstumsstimulierend für humane Haarfollikel beschrieben wird. […] Hierzu sind folgende Änderungen gegenüber der Prüfung des Carnitines und des Carnitintartrates notwendig: Testkonzentration des Minoxidil 10^-5 mol/l in 1 % Ethanol, Ersatz des Streptomycines durch 10µg/ml Ciprofloxacin. Zur statistischen Auswertung der Ergebnisse wird die Länge der Haarschäfte in % der Gesamtdurchschnittslänge aller Haarfollikel am Tage 0 berechnet. Alle Haarfollikel einer Gruppe werden gepoolt und der Mittelwert sowie die Standardabweichung statistisch nach üblichen Methoden berechnet. Signifikante Unterschiede werden mit dem Student T-Test berechnet. d.

[1] = 50 µmol/l, medium changed daily, shaft length measured on day 9, in % of mean length of all follicles on day 0

Row | SMILES | Längenwachstum des Haarschaftes in % [1] [%] | Längenwachstum des Haarschaftes in % (positive control, 10^-5 mol/l in 1 % Ethanol, streptomycin replaced by 10 µg/ml Ciprofloxacin, measured on day 9) [%]
1 | C[N+](C)(C)CC(O)CC(=O)[O-] (stereo not drawn) [Carnitin] | 67 | –
2 | C[N+](C)(C)CC(O)CC(=O)[O-] (stereo not drawn) [Carnitintartrat] | 87 | –
3 | Nc1cc(N2CCCCC2)nc(N)[n+]1[O-] [Minoxidil, reference compound] | – | 34
